From PMC12735872, “Development of ^18F/^11C-Labeled Pyrrolo-Pyridine/Pyrimidine LRRK2 Selective PET Radioligands” (Pharmaceuticals, 2025)
Like-named read-outs stand apart in the source and are kept apart here.

Tests used:
[1] = Radiometabolite analysis in monkey plasma (gradient HPLC); format: in vivo, cynomolgus monkey; conditions: baseline PET
Procedure: The technique published earlier was utilized for the analysis of radiometabolites in NHP blood plasma. During the entire PET measurement, the percentage of the injected radioligand and its corresponding radioactive metabolites and radioactivity was measured with a reverse-phase HPLC system with UV absorbance detector (λ = 254 nm) and a radioactive detector. […] The blood samples were centrifuged at 4000 rpm for 2 min to separate plasma. From the centrifuged plasma, the resulting plasma was withdrawn and spiked with 1.4 times its volume of acetonitrile before being spun at 6000 rpm for 4 min. The supernatant, collected after the spun at 6000 rpm, was diluted with 3 mL of water, which was then injected into the HPLC system. The HPLC system was constructed with an Agilent 1200 series binary pump (Agilent, Santa Clara, CA, USA), a Rheodyne 7725i (Thermo Scientific, Waltham, MA, USA) manual injection valve, a 5.0 mL loop, and an Oyokoken S-2493Z radiation detector (Oyokoken, Tokyo, Japan) fitted with 50 mm lead shielding, which houses the detector. Chromatographic separation of the radiometabolites from the unchanged radioligand was performed via gradient elution on a semi-preparative reverse-phase ACE 5 µm C18 HL column (250 × 10 mm) using a mobile phase of acetonitrile (A) and ammonium formate 0.1 M (B). A flow rate of 5.0 mL/min was utilized according to the program 0–6.0 min: (A/B) 40:60 → 90:10 v/v; 6.0–10.0 min: (A/B) 90:10 (v/v). The radioactive peak corresponding to the parent radioligand was then integrated from the data output of the HPLC column. The area of this peak was calculated relative to the total area detected for all radioactive compounds. To evaluate the radioactivity recovery from the system, the measurement was taken from a 2 mL aliquot of the eluate taken from the HPLC column and measured against the total injected radioactivity.

[2] = molecular target: T1, LRRK2 (Homo sapiens, UniProt Q5S007); experiment: In vitro autoradiography, human whole-hemisphere brain slices; format: binding; conditions: human brain slices, baseline
T1 construct: Human brains without pathological findings were acquired from the National Institute of Forensic Medicine; from tissue; host or cells: human post-mortem control brain, whole-hemisphere sections (100 µm)
Procedure: Human brains without pathological findings were acquired from the National Institute of Forensic Medicine at Karolinska Institutet in Stockholm, Sweden. These brains were obtained during forensic autopsies (designated as control brain) and were processed in a manner like previously described methods. […] The brain was removed, and its tissues were kept in −85 °C until the sectioning process. The whole brain hemispheric slices were subsequently maintained at −25 °C until the commencement of autoradiography procedures. […] The sectioning of the brain and the autoradiography experiments were performed at the Psychiatry section, Department of Neuroscience, Karolinska Institutet, Sweden.
Whole brain hemispheres were sectioned into horizontal slices with a thickness of 100 µm using a Leica cryomacrocut system. The autoradiographic procedures followed the same protocols established in previous studies conducted in our laboratory. The whole-hemisphere sections of 100 micron thickness were incubated for 90 min at room temperature with their corresponding radiotracer (4 MBq/200 mL) in TRIS buffer (pH 7.4) containing sodium chloride (120 mM), potassium chloride (5 mM), calcium chloride (2 mM), and albumin (0.1% w/v). After incubation, sections were washed three times in the same buffer at room temperature for five minutes each, briefly dipped in ice-cold distilled water, dried, and then placed in the phosphor imaging plates. Binding density standards were prepared by serial dilution of the radioligand stock solution in the assay buffer. Readings were taken with the Fujifilm BAS-5000 (Fujifilm, Tokyo, Japan), while quantitative analysis was conducted with the Multi Gauge 3.2 image analysis software (Fujifilm, Tokyo, Japan). For blocking experiments, adjacent brain sections were co-incubated with LuAF66583 (0.1 µM or 10 µM).

[3] = Plasma protein binding by ultrafiltration; format: in vitro ADME, non-human primate (NHP); conditions: cynomolgus monkey, pH 7.4, NHP plasma, baseline
Procedure: The plasma protein binding of all three radioligands was determined in duplicate at the baseline condition according to a previously published method. For each blood plasma sample, 500 μL of non-human primate (NHP) blood plasma was used with 50 μL PBS (pH 7.4 containing KCl 0.2 mg, KH2PO4 0.2 mg, Na2HPO4 1.42 mg, and NaCl 8 mg per mL). The mixture included around 20 MBq of the corresponding radioligand in PBS. Samples underwent incubation at room temperature for 10 min. A small aliquot (20 µL) was taken from each mixture, and radioactivity measurements were performed using a well counter. From each mixture, 200 µL was placed into ultrafiltration tubes (Millipore Centrifree YM-30) and centrifuged at 3000 rpm for 15 minutes. The remaining filtrates were analyzed and aliquots (20 µL) were counted in the well counter described earlier. Protein-bound fractions were calculated as follows:(1) C⥂pla (filtrate) /Cpla (total) ÷CPBS (filtrate) /CPBS (total) ×100(%)
Cpla (total) represents the radioactivity concentration of incubation mixture in plasma and CPBS (total) represents the radioactivity concentration of incubation mixture in PBS. Cpla (filtrate) and CPBS (filtrate) are the radioactivity concentrations from filtrate samples.

[4] = read-out: Free fraction in plasma (fP)
[5] = read-out: Plasma protein binding (converted)

T1 sequence (Q5S007 whole entry): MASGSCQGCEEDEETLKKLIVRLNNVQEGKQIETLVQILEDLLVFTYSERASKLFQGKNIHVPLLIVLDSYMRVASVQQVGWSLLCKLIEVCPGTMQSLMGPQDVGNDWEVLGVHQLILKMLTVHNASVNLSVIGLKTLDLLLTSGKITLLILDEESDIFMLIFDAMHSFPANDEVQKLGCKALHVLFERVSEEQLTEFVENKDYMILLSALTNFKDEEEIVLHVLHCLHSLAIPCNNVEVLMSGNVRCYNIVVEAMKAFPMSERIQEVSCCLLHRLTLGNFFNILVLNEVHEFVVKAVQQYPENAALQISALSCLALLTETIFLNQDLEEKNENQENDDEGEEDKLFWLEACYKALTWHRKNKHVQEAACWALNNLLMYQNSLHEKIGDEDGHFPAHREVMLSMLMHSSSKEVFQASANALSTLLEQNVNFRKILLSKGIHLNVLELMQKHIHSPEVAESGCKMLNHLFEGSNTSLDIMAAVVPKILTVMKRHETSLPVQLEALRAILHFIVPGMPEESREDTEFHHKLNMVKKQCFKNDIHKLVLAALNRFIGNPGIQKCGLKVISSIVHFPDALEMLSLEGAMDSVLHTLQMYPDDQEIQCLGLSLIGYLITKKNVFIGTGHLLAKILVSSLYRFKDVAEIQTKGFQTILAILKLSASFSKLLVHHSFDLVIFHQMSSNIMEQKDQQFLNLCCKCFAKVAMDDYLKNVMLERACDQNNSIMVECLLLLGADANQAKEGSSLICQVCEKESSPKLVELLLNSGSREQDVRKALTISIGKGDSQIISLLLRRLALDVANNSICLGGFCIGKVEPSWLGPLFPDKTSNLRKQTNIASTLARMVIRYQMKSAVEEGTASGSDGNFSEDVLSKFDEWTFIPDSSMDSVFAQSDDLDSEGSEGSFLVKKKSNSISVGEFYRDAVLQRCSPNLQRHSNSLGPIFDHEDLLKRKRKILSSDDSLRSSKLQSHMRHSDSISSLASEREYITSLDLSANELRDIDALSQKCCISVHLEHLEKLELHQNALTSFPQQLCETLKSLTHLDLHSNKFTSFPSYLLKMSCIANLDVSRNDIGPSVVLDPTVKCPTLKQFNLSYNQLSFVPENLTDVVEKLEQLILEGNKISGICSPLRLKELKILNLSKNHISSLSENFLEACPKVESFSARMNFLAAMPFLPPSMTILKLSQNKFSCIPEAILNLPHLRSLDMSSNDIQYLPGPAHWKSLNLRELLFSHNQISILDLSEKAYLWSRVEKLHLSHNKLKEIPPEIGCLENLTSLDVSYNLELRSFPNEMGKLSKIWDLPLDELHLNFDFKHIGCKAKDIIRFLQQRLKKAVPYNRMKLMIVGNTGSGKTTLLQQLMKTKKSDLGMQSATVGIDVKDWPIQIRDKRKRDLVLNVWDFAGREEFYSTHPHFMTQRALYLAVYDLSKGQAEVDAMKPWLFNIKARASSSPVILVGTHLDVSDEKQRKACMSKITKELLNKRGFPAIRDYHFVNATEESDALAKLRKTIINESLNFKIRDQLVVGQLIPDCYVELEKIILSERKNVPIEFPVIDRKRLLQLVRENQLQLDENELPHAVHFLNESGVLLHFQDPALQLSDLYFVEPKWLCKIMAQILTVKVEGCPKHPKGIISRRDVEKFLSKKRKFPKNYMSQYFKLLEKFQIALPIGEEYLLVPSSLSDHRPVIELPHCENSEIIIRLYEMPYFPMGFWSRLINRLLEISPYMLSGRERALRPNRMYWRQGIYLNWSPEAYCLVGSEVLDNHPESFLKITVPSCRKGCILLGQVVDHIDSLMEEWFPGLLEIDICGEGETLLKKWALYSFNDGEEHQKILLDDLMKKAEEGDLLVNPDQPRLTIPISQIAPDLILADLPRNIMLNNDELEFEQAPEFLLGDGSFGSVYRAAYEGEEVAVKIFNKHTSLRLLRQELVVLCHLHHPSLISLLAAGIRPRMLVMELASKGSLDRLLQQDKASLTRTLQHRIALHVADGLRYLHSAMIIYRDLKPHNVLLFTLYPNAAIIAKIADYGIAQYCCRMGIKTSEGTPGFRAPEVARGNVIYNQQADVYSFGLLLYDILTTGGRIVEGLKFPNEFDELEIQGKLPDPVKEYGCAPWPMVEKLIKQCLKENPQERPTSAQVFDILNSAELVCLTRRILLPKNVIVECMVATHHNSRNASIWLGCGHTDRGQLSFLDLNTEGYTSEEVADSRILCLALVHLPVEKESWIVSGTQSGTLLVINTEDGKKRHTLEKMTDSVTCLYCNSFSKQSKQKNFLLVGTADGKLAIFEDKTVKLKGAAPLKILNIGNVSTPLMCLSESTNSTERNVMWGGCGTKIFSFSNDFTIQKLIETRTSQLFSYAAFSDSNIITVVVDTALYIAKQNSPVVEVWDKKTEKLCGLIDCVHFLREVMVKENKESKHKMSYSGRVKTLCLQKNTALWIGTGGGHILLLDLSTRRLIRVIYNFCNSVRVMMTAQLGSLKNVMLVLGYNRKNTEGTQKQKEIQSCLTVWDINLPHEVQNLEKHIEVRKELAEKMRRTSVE

Parent compound, share of eluted plasma radioactivity ([1]; at 5 min) | Parent compound, share of eluted plasma radioactivity ([1]; at 90 min) | Binding of radioligand in brain slices (ARG) [2] | fraction unbound at 10 min [3, 4] | fraction unbound at 10 min [3, 5] | Compound
over 90% | around 10% | clear binding | ~0.45 | ~0.45 | C[C@@H]1C[C@@H]([18F])CN1c1c(C#N)c2c(N)nccc2n1C [[^18F]1, 4-Amino-2-((2R,4R)-4-[^18F]fluoro-2-methylpyrrolidin-1-yl)-1-methyl-1H-pyrrolo[3,2-c]pyridine-3-carbonitrile]
over 90% | around 10% | displayed binding | ~0.6 | ~0.6 | C[C@@H]1C[C@@H]([18F])CN1c1c(C#N)c2c(N)ncnc2n1C [[^18F]2, 4-Amino-6-((2R,4R)-4-[^18F]fluoro-2-methyl Pyrrolidin-1-yl)-7-methyl-7H-pyrrolo[2,3-d]pyrimidine-5-carbonitrile]
